Measurements: patent publication US20240391902A1, “Crystalline Form of Compound” (Shenzhen Forward Pharmaceuticals Co., Limited, priority 2020, published 2024)

What was measured:
[1] = tested on: EGFR activating mutation (exon 19 deletion activating mutation, L858R activating mutation, T790M drug resistance mutation and exon 20 insertion mutation); details: disclosed in CN105461695B; cited from earlier work
[2] = Dynamic solubility test; type: physicochemical; details: room temperature, feeding concentration 10 mg/mL, listed as compound of formula (I)
Description: Determination method: According to a feeding concentration of 10 mg/mL, about 50 mg of the sample were weighed and added to 5 mL of the corresponding medium, and the sample was dissolved by rotating at […] at room temperature.

## C=CC(=O)Nc1cc(Nc2ncnc(-c3cn(C)c4ccccc34)n2)c(OC)cc1N(C)CCN(C)C [Example 21]
[1]
  inhibitory activity against EGFR activating mutation compared with wild-type EGFR (WT EGFR): significantly higher
[2]; SGF, 0.5 h
  dynamic solubility: <1000 µg/mL
[2]; SGF, 1 h
  dynamic solubility: <1000 µg/mL
[2]; SGF, 2 h
  dynamic solubility: <1000 µg/mL
[2]; SGF, 4 h
  dynamic solubility: <1000 µg/mL
[2]; SGF, 24 h
  dynamic solubility: <1000 µg/mL
[2]; water, 0.5 h
  dynamic solubility: <1000 µg/mL
[2]; water, 1 h
  dynamic solubility: <1000 µg/mL
[2]; water, 2 h
  dynamic solubility: <1000 µg/mL
[2]; water, 4 h
  dynamic solubility: <1000 µg/mL
[2]; water, 24 h
  dynamic solubility: <1000 µg/mL
